Measured values taken from US20150072418A1, “HCV GENOTYPE 4D REPLICONS” (priority 2013, published 2015).

Columns and labels:
GT1b replicon = assay: HCV replicon susceptibility to antiviral agents, GT1b; assay type: cell-based; conditions: Hepatitis C virus, n = 2
Experimental: (§1) All of these HCV inhibitors, as well as any other candidate agents, can be tested with the disclosed methods for their efficacy in inhibiting HCV genotype 4d. The cells are then incubated at a suitable temperature for a period time to allow the replicons to replicate in the cells. The replicons can include a reporter gene such as luciferase and in such a case, at the end of the incubation period, the cells are assayed for luciferase activity as markers for replicon levels. Luciferase expression can be quantified using a commercial luciferase assay.
(§2) Luciferase or NS3 protease activity level is then converted into percentages relative to the levels in the controls which can be untreated or treated with an agent having known activity in inhibiting the HCV.
(§3) Another comparison was made, with respect to each replicon's susceptibility against HCV antiviral agents.

GT4a replicon = assay: HCV replicon susceptibility to antiviral agents, GT4a; assay type: cell-based; conditions: Hepatitis C virus, n = 2
Experimental: as §1, §2, §3

[1] = test system: GT4d (34R + 232G-pool) replicon; assay: HCV replicon susceptibility to antiviral agents, GT4d (34R + 232G-pool); assay type: cell-based; conditions: Hepatitis C virus, GT4d replicon with Q34R + S232G, n = 2
Experimental: as §1, §2
(§4) Stable GT4d subgenomic replicons were prepared to include these double mutations (FIG. 12). Ten micrograms of in vitro transcribed 4d Rluc-Neo RNA were transfected into 1C cells. G418 selection started 2 days after transfection and plates were fixed and stained after 2 weeks of G418 selection. […] The luciferase activity of these stable replicon cells of these replicons were further compared to GT4a replicons and GT1b.
as §3

[2] = test system: GT4d (34R + 232I-pool) replicon; assay: HCV replicon susceptibility to antiviral agents, GT4d (34R + 232I-pool); assay type: cell-based; conditions: Hepatitis C virus, GT4d replicon with Q34R + S232I, n = 2
Experimental: as §1, §2, §4, §3

[3] = test system: GT 4d-Neo replicons (4d-2Re and 4d-3Re), NS3 activity; assay: Inhibition of NS3 activity of GT 4d-Neo replicons from pooled colonies; assay type: cell-based, Hepatitis C virus; conditions: 4d-3Re and 4d-2Re replicon cells; FIG. 3A-B
Source text: Alternately, efficacy of the HCV inhibitor can be measured by the expression or activity of the proteins encoded by the replicons. One example of such proteins is the NS3 protease, and detection of the protein expression or activity can be carried out with methods known in the art, e.g., Cheng et al., Antimicrob Agents Chemother 55:2197-205 (2011).
as §2
Two candidate HCV inhibitors, Compound A (FIG. 3A) and B (FIG. 3B) were used to test the inhibition of NS3 activities of the replicons isolated from pooled colonies (4d-2Re and 4d-3Re, see FIG. 2). […] Also observed was that NS3 activity was higher in 4d-3Re than 4d-2Re.
4000 cells/well were plated in 96-well white plates. NS3 activity was read 72 hours after plating. Values shown in FIG. 4 are mean of DMSO treated well from 3 plates.

CC(C)OC(=O)[C@H](C)NP(=O)(OC[C@H]1O[C@@H](n2ccc(=O)[nH]c2=O)[C@](C)(F)[C@@H]1O)Oc1ccccc1 (stereo partly drawn) [Compound A, isopropyl (2S)-2-[[[(2R,3R,4R,5R)-5-(2,4-dioxopyrimidin-1-yl)-4-fluoro-3-hydroxy-4-methyl-tetrahydrofuran-2-yl]methoxy-phenoxy-phosphoryl]amino]propanoate]
EC50 (GT1b replicon): 158 nM
EC50 (GT4a replicon): 70 nM
EC50 [1]: 33 nM
EC50 [2]: 37 nM
inhibition of NS3 activity [3]: dose dependent inhibition
